In ChEMBL document CHEMBL1201862, “PubChem BioAssay data set” (2004):
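48-hour exposure; five concentrations; linearly interpolated endpoints. GI50 is the concentration that inhibits growth by half.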 Calls of active or inactive are those of the source. No stated cut-off is given here; in the data, active = GI50 up to about 1.1 µM and inactive = higher. Starred links: 1 amine or outer side, 2 acyl side, 3 side chain; linkers in the order of their positions; H or OH if unused. Positions of bridges follow the written chain, without caps; N, C: chain ends. Non-standard residues stand in square brackets, D forms with d. Residues, ends and D or L forms follow the SMILES beside them. Chains are numbered I, II in the order given. Actinocin(1to9) = Cc1c2oc3c(C)ccc(C(=O)[*:2])c3nc-2c(C(=O)[*:1])c(N)c1=O; aThr = C[C@H](O)[C@H](N)C(=O)O; NMeV = CN[C@H](C(=O)O)C(C)C; Sar = CNCC(=O)O

Columns and labels:
Assay in all cases: inhibition of tumour cell growth, NCI panel, 48 h
[1] = system: MDA-MB-231
[2] = system: SK-OV-3
[3] = system: HOP-92
[4] = system: PC-3
[5] = system: M14
[6] = system: UACC-257
[7] = system: HCT-116
[8] = system: OVCAR-5
[9] = system: HOP-62
[10] = system: NCI-H522
[11] = system: SF-295
[12] = system: BT-549
[13] = system: T47D
[14] = system: MDA-N
[15] = system: SR
[16] = system: RXF 393
[17] = system: SF-539
[18] = system: SNB-19
[19] = system: SF-268
[20] = system: CCRF-CEM

Compound | GI50 [1] | GI50 [2] | GI50 [3] | GI50 [4] | GI50 [5] | GI50 [6] | GI50 [7] | GI50 [8] | GI50 [9] | GI50 [10] | GI50 [11] | GI50 [12] | GI50 [13] | GI50 [14] | GI50 [15] | GI50 [16] | GI50 [17] | GI50 [18] | GI50 [19] | GI50 [20]
COc1ccc(-c2cc(-c3ccccc3)n(C3OCC(OC(C)=O)C(OC(C)=O)C3OC(C)=O)c(=S)c2C#N)cc1 (stereo not given) | > 100 µM (inactive) | 66.1 µM (inactive) | 16 µM (inactive) | > 100 µM (inactive) | > 100 µM (inactive) | > 100 µM (inactive) | 86.5 µM (inactive) | 87.1 µM (inactive) | > 100 µM (inactive) | 66.5 µM (inactive) | 56.4 µM (inactive) | > 100 µM (inactive) | 78.7 µM (inactive) | 54.5 µM (inactive) | > 100 µM (inactive) | 37.5 µM (inactive) | > 100 µM (inactive) | > 100 µM (inactive) | > 100 µM (inactive) | > 100 µM (inactive)
CCOC(=O)NC(Nc1ccc(OC(F)(F)F)cc1)(C(F)(F)F)C(F)(F)F | > 100 µM (inactive) | > 100 µM (inactive) | > 100 µM (inactive) | > 100 µM (inactive) | > 100 µM (inactive) | > 100 µM (inactive) | > 100 µM (inactive) | > 100 µM (inactive) | > 100 µM (inactive) | > 100 µM (inactive) | > 100 µM (inactive) | > 100 µM (inactive) | > 100 µM (inactive) | > 100 µM (inactive) | > 100 µM (inactive) | > 100 µM (inactive) | > 100 µM (inactive) | > 100 µM (inactive) | > 100 µM (inactive) | > 100 µM (inactive)
Cc1ccc(OC(=O)N2C/C(=C\c3ccccc3)C(=O)/C(=C/c3ccccc3)C2)cc1 | 26.7 µM (inactive) | 41.3 µM (inactive) | > 100 µM (inactive) | 27.6 µM (inactive) | 8.79 µM (inactive) | 40.6 µM (inactive) | 2.13 µM (inactive) | 76 µM (inactive) | 18.5 µM (inactive) | 13 µM (inactive) | 18.7 µM (inactive) | 29 µM (inactive) | > 100 µM (inactive) | 4.02 µM (inactive) | 3.43 µM (inactive) | 20.1 µM (inactive) | 26.4 µM (inactive) | 43.5 µM (inactive) | 34.1 µM (inactive) | 3.2 µM (inactive)
Cc1c2oc3c(C)ccc(C(=O)N[C@@H]4C(=O)N[C@H](C(C)C)C(=O)N5CCC[C@H]5C(=O)N(C)CC(=O)N(C)[C@@H](C(C)C)C(=O)O[C@H]4C)c3nc-2c(C(=O)N[C@@H]2C(=O)N[C@H](C(C)C)C(=O)N3CCC[C@H]3C(=O)N(C)CC(=O)N(C)[C@@H](C(C)C)C(=O)O[C@H]2C)c(N)c1=O (I: [aThr][dV]P[Sar][NMeV] / II: [aThr][dV]P[Sar][NMeV]; ester I:1-I:C, II:1-II:C; linker I:N-II:N via Actinocin(1to9)) | 0.00455 µM (active) | 0.00869 µM (active) | 0.00314 µM (active) | 0.00134 µM (active) | 0.00528 µM (active) | 0.00255 µM (active) | 0.000332 µM (active) | 0.00611 µM (active) | 0.00217 µM (active) | 0.000506 µM (active) | 0.00203 µM (active) | 0.00169 µM (active) | 0.000628 µM (active) | 0.000631 µM (active) | 0.00031 µM (active) | 0.00258 µM (active) | 0.000899 µM (active) | 0.00161 µM (active) | 0.00148 µM (active) | 0.000863 µM (active)
